From PubChem BioAssay (NCI)
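96-well plates; 48 h exposure; 5 concentrations. Endpoints by linear interpolation between flanking doses. Not reached: highest tested concentration assigned. GI50 is the concentration that inhibits growth by half. TGI: total growth inhibition.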

Legend:
Assay in all cases: NCI-60 cell line screen, 48 h
[1] = tested on: NCI/ADR-RES ovarian
[2] = tested on: NCI-H23 lung
[3] = tested on: NCI-H226 lung
[4] = tested on: MDA-MB-468 breast
[5] = tested on: HCC-2998 colon
[6] = tested on: RXF 393 renal
[7] = tested on: SK-OV-3 ovarian
[8] = tested on: SN12C renal
[9] = tested on: RPMI-8226 leukemia
[10] = tested on: SF-539 CNS
[11] = tested on: A549 NSCLC
[12] = tested on: OVCAR-4 ovarian
[13] = tested on: NCI-H522 lung
[14] = tested on: SF-268 CNS
[15] = tested on: HOP-92 NSCLC
[16] = tested on: COLO 205 colon
[17] = tested on: HS 578T breast
[18] = tested on: SF-295 CNS
[19] = tested on: CAKI-1 renal
[20] = tested on: MALME-3M melanoma
[21] = tested on: BT-549 breast
[22] = tested on: IGROV1 ovarian
[23] = tested on: NCI-H460 lung
[24] = tested on: HT29 colon
[25] = tested on: ACHN renal
[26] = tested on: MDA-MB-435
[27] = tested on: TK-10 renal
[28] = tested on: OVCAR-8 ovarian
[29] = tested on: CCRF-CEM leukemia
[30] = tested on: MOLT-4 leukemia
[31] = tested on: OVCAR-3 ovarian
[32] = tested on: LOX IMVI melanoma
[33] = tested on: UACC-257 melanoma
[34] = tested on: K-562 leukemia
[35] = tested on: OVCAR-5 ovarian
[36] = tested on: HOP-62 NSCLC
[37] = tested on: HL-60(TB) leukemia
[38] = tested on: SNB-19 CNS
[39] = tested on: PC-3 prostate
[40] = tested on: M14 melanoma
[41] = tested on: MDA-MB-231 breast
[42] = tested on: T-47D breast
[43] = tested on: SK-MEL-2 melanoma
[44] = tested on: SNB-75 CNS
[45] = tested on: SK-MEL-28 melanoma
[46] = tested on: MCF7 breast
[47] = tested on: 786-0 renal
[48] = tested on: A498 renal
[49] = tested on: SR leukemia
[50] = tested on: DU-145 prostate
[51] = tested on: EKVX NSCLC
[52] = tested on: U251 CNS
[53] = tested on: UO-31 renal
[54] = tested on: HCT-15 colon
[55] = tested on: SW-620 colon
[56] = tested on: KM12 colon
[57] = tested on: UACC-62 melanoma
[58] = tested on: HCT-116 colon
[59] = tested on: SK-MEL-5 melanoma

## COc1cc2nc(SCc3ccccc3)n(-c3ccc(Cl)cc3)c(=O)c2cc1OC
[1]
  GI50: 6.25 µM
  TGI: 22.7 µM
[2]
  GI50: 11.2 µM
  TGI: 30.7 µM
[3]
  GI50: 3.55 µM
  TGI: 22.7 µM
[4]
  GI50: 7.61 µM
  TGI: 45.6 µM
[5]
  GI50: 22.5 µM
  TGI: > 100 µM
[6]
  GI50: 4.99 µM
  TGI: 27.8 µM
[7]
  GI50: 16.6 µM
  TGI: 53 µM
[8]
  GI50: 11.5 µM
  TGI: 75.8 µM
[9]
  GI50: 66.1 µM
  TGI: > 100 µM
[10]
  GI50: 7.07 µM
  TGI: 20.1 µM
[11]
  GI50: 8.69 µM
  TGI: 29.6 µM
[12]
  GI50: 3.54 µM
  TGI: 16.9 µM
[13]
  GI50: 18.9 µM
  TGI: 88.2 µM
[14]
  GI50: 10.3 µM
  TGI: 44.4 µM
[15]
  GI50: 16.1 µM
  TGI: 49 µM
[16]
  GI50: 29.4 µM
  TGI: > 100 µM
[17]
  GI50: 6.63 µM
  TGI: 48.6 µM
[18]
  GI50: 4.36 µM
  TGI: 17.8 µM
[19]
  GI50: 3.34 µM
  TGI: 13.7 µM
[20]
  GI50: 19.1 µM
  TGI: 68.5 µM
[21]
  GI50: 22 µM
  TGI: 82.4 µM
[22]
  GI50: 20.8 µM
  TGI: 80.4 µM
[23]
  GI50: 8.29 µM
  TGI: 33.2 µM
[24]
  GI50: 40.4 µM
  TGI: > 100 µM
[25]
  GI50: 4.69 µM
  TGI: 19 µM
[26]
  GI50: 64.1 µM
  TGI: > 100 µM
[27]
  GI50: 20.3 µM
  TGI: 44.9 µM
[28]
  GI50: 17.5 µM
  TGI: 66.6 µM
[29]
  GI50: 38.1 µM
  TGI: > 100 µM
[30]
  GI50: 25.2 µM
  TGI: > 100 µM
[31]
  GI50: 15.8 µM
  TGI: 44.5 µM
[32]
  GI50: 5.77 µM
  TGI: 18.9 µM
[33]
  GI50: 39.2 µM
  TGI: > 100 µM
[34]
  GI50: 12 µM
  TGI: 35.6 µM
[35]
  GI50: 31 µM
  TGI: > 100 µM
[36]
  GI50: 4.65 µM
  TGI: 18.4 µM
[37]
  GI50: > 100000 nM
  TGI: > 100 µM
[38]
  GI50: 12.6 µM
  TGI: 36 µM
[39]
  GI50: 16.1 µM
  TGI: > 100 µM
[40]
  GI50: 42.7 µM
  TGI: > 100 µM
[41]
  GI50: 16.7 µM
  TGI: 79.1 µM
[42]
  GI50: 28.1 µM
  TGI: > 100 µM
[43]
  GI50: 36.8 µM
  TGI: > 100 µM
[44]
  GI50: 2270 nM
  TGI: 7.86 µM
[45]
  GI50: 21.8 µM
  TGI: > 100 µM
[46]
  GI50: 14.5 µM
  TGI: > 100 µM
[47]
  GI50: 3.84 µM
  TGI: 15.6 µM
[48]
  GI50: 19.6 µM
  TGI: 45.2 µM
[49]
  GI50: 16.5 µM
  TGI: > 100 µM
[50]
  GI50: 22.3 µM
  TGI: 98.1 µM
[51]
  GI50: 16.6 µM
  TGI: 50.5 µM
[52]
  GI50: 8.14 µM
  TGI: 31.8 µM
[53]
  GI50: 13.9 µM
  TGI: 51.7 µM
[54]
  GI50: 19 µM
  TGI: > 100 µM
[55]
  GI50: 20.1 µM
  TGI: > 100 µM
[56]
  GI50: > 100 µM
  TGI: > 100 µM
[57]
  GI50: 42.8 µM
  TGI: > 100 µM
[58]
  GI50: 5.09 µM
  TGI: 23.4 µM
[59]
  GI50: 47.9 µM
  TGI: > 100 µM

## COC(=O)C[C@](O)(CCC(C)C)C(=O)O[C@H]1C(OC)=C[C@@]23CCCN2CCc2cc4c(cc2[C@@H]13)OCO4
[1]
  GI50: 1.5 µM
  TGI: 12 µM
[2]
  TGI: > 9.5 µM
[3]
  GI50: 2.57 µM
  TGI: > 10.2 µM
[4]
  GI50: 1.8 µM
  TGI: > 8.31 µM
[5]
  GI50: 2.58 µM
[6]
  GI50: 2.65 µM
[7]
  TGI: > 31 µM
[8]
  TGI: > 19.3 µM
[9]
  TGI: > 8.64 µM
[10]
  GI50: 3.17 µM
  TGI: > 8.07 µM
[11]
  TGI: > 13.6 µM
[12]
  TGI: > 15.5 µM
[13]
  GI50: 3.3 µM
  TGI: > 8.77 µM
[14]
  TGI: > 19.6 µM
[15]
  TGI: > 11 µM
[16]
  TGI: > 13.8 µM
[17]
  TGI: > 11.1 µM
[18]
  TGI: > 11.2 µM
[19]
  TGI: > 25.1 µM
[20]
  GI50: 3.62 µM
  TGI: > 8.33 µM
[21]
  TGI: > 10.1 µM
[22]
  TGI: > 15.1 µM
[23]
  GI50: 1.51 µM
[24]
  GI50: 4.69 µM
  TGI: > 14 µM
[25]
  GI50: 3.59 µM
  TGI: > 10.9 µM
[26]
  TGI: > 14.4 µM
[27]
  GI50: > 8 µM
  TGI: > 37.1 µM
[28]
  TGI: > 13.8 µM
[29]
  GI50: 4.62 µM
  TGI: > 11.2 µM
[30]
  GI50: 10.5 µM
  TGI: > 40.5 µM
[31]
  TGI: > 12.9 µM
[32]
  GI50: 2.54 µM
[33]
  TGI: > 12.7 µM
[34]
  GI50: 2.73 µM
  TGI: > 40.5 µM
[35]
  TGI: > 15.7 µM
[36]
  TGI: > 21.9 µM
[37]
  GI50: 2400 nM
[38]
  GI50: 3.91 µM
  TGI: > 10.2 µM
[39]
  TGI: > 13.4 µM
[41]
  TGI: > 17.8 µM
[42]
  TGI: > 22.9 µM
[43]
  GI50: 1.62 µM
  TGI: 8.71 µM
[44]
  TGI: > 11 µM
[45]
  TGI: > 10.6 µM
[46]
  GI50: 1.37 µM
[47]
  TGI: > 12.3 µM
[48]
  TGI: > 9.75 µM
[49]
  GI50: 17.1 µM
  TGI: > 40.5 µM
[50]
  TGI: > 13.8 µM
[51]
  TGI: > 16.8 µM
[52]
  TGI: > 11.9 µM
[53]
  TGI: > 14.8 µM
[54]
  GI50: 4.08 µM
  TGI: > 9.64 µM
[55]
  TGI: > 16.5 µM
[56]
  TGI: > 15.6 µM
[57]
  TGI: > 14.6 µM
[58]
  GI50: 16.8 µM
  TGI: > 40.5 µM
